Reference: ChEMBL document CHEMBL5338738, “Discovery of Novel Sesquiterpene Lactone Derivatives as Potent PKM2 Activators for the Treatment of Ulcerative Colitis” (J Med Chem, 2023)
The source made the active and inactive calls. The rule behind the calls is not given here.

What was measured:
[1] = tested on: T-cell; assay: Immunomodulatory activity in C57BL/6 mouse mesenteric lymph node T cells assessed as inhibition of concanavalin A stimulated T-cell proliferation incubated for 68 hrs by CCK-8 assay; type: functional, cell-based; details: C57BL/6, T-cell
[2] = target: T1, Pyruvate kinase PKM (Homo sapiens, UniProt P14618); assay: Activation of PKM2 (unknown origin) at 3 uM incubated for 30 mins relative to control
Target sequence in this assay (P14618 2-531 limits assumed): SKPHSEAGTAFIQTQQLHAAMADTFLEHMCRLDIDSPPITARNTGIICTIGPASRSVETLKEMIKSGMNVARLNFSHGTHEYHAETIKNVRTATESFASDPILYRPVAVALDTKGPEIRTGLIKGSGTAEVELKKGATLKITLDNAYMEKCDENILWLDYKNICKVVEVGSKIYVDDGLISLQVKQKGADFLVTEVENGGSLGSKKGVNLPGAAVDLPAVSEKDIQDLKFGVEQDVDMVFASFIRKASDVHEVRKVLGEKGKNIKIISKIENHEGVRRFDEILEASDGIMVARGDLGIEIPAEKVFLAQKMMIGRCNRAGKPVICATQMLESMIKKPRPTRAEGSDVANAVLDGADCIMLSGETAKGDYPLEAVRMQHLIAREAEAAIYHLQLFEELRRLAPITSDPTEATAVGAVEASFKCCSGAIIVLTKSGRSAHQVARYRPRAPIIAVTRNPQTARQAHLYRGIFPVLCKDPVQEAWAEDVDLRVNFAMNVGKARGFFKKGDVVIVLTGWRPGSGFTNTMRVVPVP

[3] = target: T1, Pyruvate kinase PKM; assay: Activation of PKM2 (unknown origin) incubated for 30 mins
Target sequence in this assay (P14618 whole entry): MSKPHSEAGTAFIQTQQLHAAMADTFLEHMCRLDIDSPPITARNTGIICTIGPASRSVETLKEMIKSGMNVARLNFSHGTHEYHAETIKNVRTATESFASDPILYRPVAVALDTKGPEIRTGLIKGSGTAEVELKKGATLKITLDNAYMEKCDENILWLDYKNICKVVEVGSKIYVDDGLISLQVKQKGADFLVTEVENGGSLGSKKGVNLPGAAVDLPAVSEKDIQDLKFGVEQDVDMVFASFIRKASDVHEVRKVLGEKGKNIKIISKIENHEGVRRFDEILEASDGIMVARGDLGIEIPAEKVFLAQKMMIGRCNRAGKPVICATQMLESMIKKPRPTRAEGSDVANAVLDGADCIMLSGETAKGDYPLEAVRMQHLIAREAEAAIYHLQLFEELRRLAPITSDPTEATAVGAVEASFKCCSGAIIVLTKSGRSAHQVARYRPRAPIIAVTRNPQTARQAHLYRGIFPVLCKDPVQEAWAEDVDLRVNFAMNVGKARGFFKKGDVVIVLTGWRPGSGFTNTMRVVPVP

Row | SMILES | IC50 [1] [nM] | Activity [2] | EC50 [3] [nM]
1 | C=C1C(=O)O[C@@H]2/C=C(\C)CC[C@H]3C(F)(F)[C@@]3(C)CC[C@@H]12 | 1230 |  | 
2 | C=C1C(=O)O[C@@H]2/C=C(\C)CC/C=C(/C=O)CC[C@@H]12 | 25900 | inactive | 
3 | C=C1C(=O)O[C@@H]2/C=C(\C)CC/C=C(/C(F)F)CC[C@@H]12 | 1210 |  | 
4 | C=C1C(=O)O[C@@H]2/C=C(\C)CC/C=C(/CF)CC[C@@H]12 | 1520 |  | 
5 | C=C1C(=O)O[C@H]2[C@H]1CC[C@@H](C)CCC[C@@]1(C)O[C@@H]21 | 1420 |  | 
6 | C=C1C(=O)O[C@@H]2C[C@@H](C)CC[C@H]3O[C@@]3(C)CC[C@@H]12 | 1970 |  | 
7 | C=C1C(=O)O[C@@H]2/C=C(\C)CC/C=C(/C(=O)O)CC[C@@H]12 | 10200 | inactive | 
8 | C=C1C(=O)O[C@@H]2/C=C(\C)CC/C=C(\C)CC[C@@H]12 [COSTUNOLIDE] | 2570 |  | 1510
9 | C=C1C(=O)O[C@@H]2/C=C(\C)CC/C=C(/C(=O)OC)CC[C@@H]12 | 850 |  | 
10 | C=C1C(=O)O[C@@H]2/C=C(\C)CC/C=C(/CO)CC[C@@H]12 | 720 |  | 
11 | C/C1=C\[C@H]2OC(=O)[C@@H](C)[C@@H]2CC/C(C)=C/CC1 [DIHYDRO COSTUNOLIDE] | 15000 | inactive | 
12 | C=C1C(=O)O[C@@H]2/C=C(\C)CC[C@H]3O[C@@]3(C)CC[C@@H]12 | 2630 |  | 
13 | C=C1C(=O)O[C@H]2[C@H]1CC[C@]1(C)O[C@@H]1CC[C@@]1(C)O[C@@H]21 | 10600 | inactive | 
14 | C=C1C(=O)O[C@@H]2/C=C(\C)CC/C=C(/COC(=O)[C@@H](N)C(C)C)CC[C@@H]12 | 880 |  | 
15 | C=C1C(=O)O[C@@H]2/C=C(\C)CC/C=C(/CCl)CC[C@@H]12 | 15200 | inactive | 
16 | C=C1C(=O)O[C@@H]2/C=C(\C)CC/C=C(/C(=O)OCC)CC[C@@H]12 | 1030 |  | 
17 | C=C1C(=O)O[C@@H]2[C@H]3C(C)=CC[C@@H](O)[C@]3(C)CC[C@@H]12 [SANTAMARIN] | 5560 | inactive | 
18 | C=C1C(=O)O[C@@H]2/C=C(\C)CCC[C@H](C)CC[C@@H]12 | 2890 |  | 
19 | C=C1C(=O)O[C@@H]2C3=C(C)CC[C@@H](O)[C@]3(C)CC[C@@H]12 | 6170 | inactive | 
20 | C=C1C(=O)O[C@@H]2/C=C(\C)CC/C=C(/CBr)CC[C@@H]12 | 11800 | inactive | 
21 | C=C1CC[C@@H](O)[C@]2(C)CC[C@H]3C(=C)C(=O)O[C@@H]3[C@@H]12 [REYNOSIN] | 6200 | inactive | 
22 | C/C1=C\[C@H]2OC(=O)/C(=C\c3ccccc3)[C@@H]2CC/C(C)=C/CC1 | 16100 | inactive | 
23 | C=C1C(=O)O[C@@H]2/C=C(\C)CC/C=C(/COC(=O)[C@@H](NC(=O)[C@@H](N)[C@@H](C)CC)C(C)C)CC[C@@H]12 | 1010 |  | 
